Drawing on US12319655B2, “RAF kinase inhibitors and methods of use thereof” (Deciphera Pharmaceuticals, LLC, priority 2021, dated 2025), this text covers IC50 for 10 compounds.

By IC50 is commonly meant the concentration at which inhibition is half-maximal.

For one test, the system named is A375 cells. In words: A375 Cell Proliferation Assay (1). It is filed as cell-based. To be noted: Homo sapiens, A-375. Summed up:
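Resazurin fluorescence (excitation 540 nm, emission 600 nm, after a further 5-6 h) gave IC50s from triplicate compound dilution series.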

For a further test, the system named is WM3928 cells. The experiment in a line: WM3928 Cell Proliferation Assay (1). It is filed as cell-based. A digest of the protocol: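 IC50 was derived from resazurin fluorescence (ex 540, em 600 nm) after a 6–7 h dye incubation. Before that, cells had 67–72 h of compound exposure at 37 °C, 5% CO2.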
The target in test [1] is A-Raf kinase (SEQ. ID No: 1) (Homo sapiens (Human), UniProt P10398, Y301D/Y302D). The experiment in a line: Biochemical Assay for A-Raf (1). To be noted: Table J, assay version (1); read-out: ARAF (1) IC50. Summed up: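 A-Raf Y301D/Y302D at 5.55 nM phosphorylates 30.1 nM MEK with 1 mM ATP in pH 7.5 Tris buffer, 1% DMSO. Activity was read continuously as NADH oxidation at 340 nm in a pyruvate kinase/lactate dehydrogenase coupled system for 6 h at 30 °C. Rates from 4–5 h were converted to percent inhibition, and IC50 came from a four-parameter fit.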
Chain of A-Raf kinase (SEQ. ID No: 1) (P10398 other isoform, or with tags, fused parts or gaps Y301D (already in the parent)/Y302D (already in the parent)): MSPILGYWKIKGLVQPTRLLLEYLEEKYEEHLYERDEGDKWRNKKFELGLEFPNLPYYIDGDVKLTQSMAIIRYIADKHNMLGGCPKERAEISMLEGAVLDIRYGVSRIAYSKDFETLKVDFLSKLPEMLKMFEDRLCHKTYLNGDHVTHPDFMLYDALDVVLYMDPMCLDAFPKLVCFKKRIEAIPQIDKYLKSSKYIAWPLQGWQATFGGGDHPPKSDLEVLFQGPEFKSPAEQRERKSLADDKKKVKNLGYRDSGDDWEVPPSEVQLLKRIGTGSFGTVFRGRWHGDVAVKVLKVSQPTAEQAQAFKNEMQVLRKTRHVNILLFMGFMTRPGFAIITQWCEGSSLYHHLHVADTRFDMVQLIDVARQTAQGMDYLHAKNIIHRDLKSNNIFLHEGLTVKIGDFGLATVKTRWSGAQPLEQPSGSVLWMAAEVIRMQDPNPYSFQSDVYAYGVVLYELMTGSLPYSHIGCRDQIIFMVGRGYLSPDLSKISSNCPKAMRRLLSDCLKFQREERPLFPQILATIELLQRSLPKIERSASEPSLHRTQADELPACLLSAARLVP

The target in test [2] is B-Raf (V600E) (SEQ. ID NO: 4) kinase (Homo sapiens (Human), UniProt P15056, V600E). In words: Biochemical Assay for B-Raf (V600E) (1). Particulars: Table J, BRAF V600E, assay version (1); read-out: BRAF VE (1) IC50. Summed up: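 Coupled pyruvate kinase/lactate dehydrogenase assay: 0.03 nM B-Raf V600E, 30.1 nM MEK, 1 mM ATP, pH 7.5 Tris/MgCl2 buffer, 1% DMSO. NADH oxidation followed at 340 nm for 6 h at 30 °C; rate from 3–4 h converted to percent inhibition, IC50 by four-parameter fit.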
Chain of B-Raf (V600E) (SEQ. ID NO: 4) kinase (P15056 416-766 V600E): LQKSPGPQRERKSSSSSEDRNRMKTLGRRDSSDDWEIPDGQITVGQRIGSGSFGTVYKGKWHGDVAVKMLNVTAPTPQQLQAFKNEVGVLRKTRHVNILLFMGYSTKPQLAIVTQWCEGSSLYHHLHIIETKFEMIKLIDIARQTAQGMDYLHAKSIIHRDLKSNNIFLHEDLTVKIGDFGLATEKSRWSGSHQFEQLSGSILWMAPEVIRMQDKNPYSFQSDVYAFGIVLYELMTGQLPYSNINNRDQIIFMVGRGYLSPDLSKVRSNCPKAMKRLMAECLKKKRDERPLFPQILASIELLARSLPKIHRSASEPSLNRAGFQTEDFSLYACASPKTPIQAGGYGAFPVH

Each structure is given as a SMILES string.

Regarding `COC(=O)Nc1cc(-c2nccc(-c3cc(NC(=O)c4ccnc(C(C)(C)C#N)c4)c(F)cc3C)n2)ccn1` [Example 303], the 50% inhibitory concentration (IC50) in the test with A375 cells is at most 100 nM; in the test with WM3928 cells it was at most 100 nM; in test [1], 1000 to 10000 nM; in test [2] it was at most 100 nM.

For the compound `Cc1nc(-c2ccnc(NC(=O)C3CC3)c2)cc(-c2cc(NC(=O)c3ccnc(C4(C#N)CC4)c3)cnc2C)n1` [Example 286], the IC50 in the test on A375 cells was 500 to 1000 nM; in the test with WM3928 cells it was 100 to 500 nM; in test [1], 1000 to 10000 nM; in test [2] it was at most 100 nM.

Take `Cc1ccc(NC(=O)c2cn(C(C)C)nn2)cc1-c1cc(-c2ccnc(NC(=O)C3CC3)c2)cnn1` [Example 320]: the IC50 is 1000 to 10000 nM in the test on A375 cells, 1000 to 10000 nM in the test on WM3928 cells, 1000 to 10000 nM in test [1] and 100 to 500 nM in test [2].

As to `CC(=O)Nc1cc(-c2nccc(-c3cc(NC(=O)c4ccnc(C(F)(F)F)c4)ccc3C)n2)ccn1` [Example 24], the half-maximal inhibitory concentration (IC50) was at most 100 nM in the test with A375 cells, at most 100 nM with WM3928 cells, 500 to 1000 nM in test [1] and at most 100 nM in test [2].

Regarding `Cc1ncc(NC(=O)c2cn(C(C)C)nn2)cc1-c1ccnc(-c2ccnc(NC(=O)C3CC3)c2)n1` [Example 281], the half-maximal inhibitory concentration (IC50) in the test on A375 cells is 1000 to 10000 nM; in the test on WM3928 cells, 1000 to 10000 nM; in test [1] it was 1000 to 10000 nM; in test [2], at most 100 nM.

Take `CO[C@H]1CC[C@H](C(=O)Nc2ccc(C)c(-c3ccnc(-c4ccnc(NC(=O)C5CC5)c4)n3)c2)CC1` [Example 341]: the IC50 with A375 cells was 1000 to 10000 nM; in the test on WM3928 cells, 1000 to 10000 nM; in test [1], 1000 to 10000 nM; in test [2], at most 100 nM.

In the case of `Cc1cc(F)c(NC(=O)c2ccnc(C(C)(C)F)c2)cc1-c1ccnc(-c2ccnc(NC(=O)C3CC3)c2)c1` [Example 300], the IC50 with A375 cells is at most 100 nM; in the test with WM3928 cells it was at most 100 nM; in test [1], 1000 to 10000 nM; in test [2], at most 100 nM.

Consider `COC(=O)Nc1cc(-c2cnnc(-c3cc(NC(=O)c4ccnc(C(C)(C)C#N)c4)c(F)cc3C)c2)ccn1` [Example 299], for which the IC50 in the test with A375 cells is 100 to 500 nM; in the test with WM3928 cells, 500 to 1000 nM; in test [1] it was 1000 to 10000 nM; in test [2], at most 100 nM.

Regarding `Cc1ncc(NC(=O)c2cn(C(C)C)nn2)cc1-c1nccc(-c2ccnc(NC(=O)C3CC3)c2)n1` [Example 285], the concentration for half-maximal inhibition (IC50) in the test on A375 cells is 1000 to 10000 nM; in the test with WM3928 cells, 1000 to 10000 nM; in test [1] it was 1000 to 10000 nM; in test [2] it was at most 100 nM.

Consider `CNC(=O)c1cc(-c2cc(-c3cc(NC(=O)COCC4CC4)ccc3C)ccn2)ccn1` [Example 358], for which the IC50 was in the range of 1000 to 10000 nM in the test on A375 cells, 1000 to 10000 nM with WM3928 cells, 1000 to 10000 nM in test [1] and 500 to 1000 nM in test [2].
